Patent publication US12503452B2 (Curza Global, LLC, priority 2019, dated 2025)
Where a name gives a salt, the structure may show the parent alone. Read-outs that look alike come from different tables or passages of the source.

Assays:
E. faecalis (Ef) = test: Broth microdilution minimum inhibitory concentration (MIC); format: cell-based; conditions: for MIC: Enterococcus faecalis, read-out: Ef + bicarb MIC
Summary of the method: (§1)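 MICs were run in triplicate per CLSI microdilution (modified, 8 dilution steps), inoculating 5×10^4 CFU/well prepared from colonies grown at 35±2° C to 0.5 McFarland. Media: CAMHB alone, with 6.25 or 25 mM final sodium bicarbonate, or with 0–50% heat-inactivated human serum.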

A. baumannii (Ab) = test: as above; format: cell-based; conditions: for MIC: Acinetobacter baumannii, read-out: Ab + bicarb MIC
Summary of the method: as §1

S. aureus (Sa) = test: as above; format: cell-based; conditions: for MIC: Staphylococcus aureus, read-out: Sa + bicarb MIC
Summary of the method: as §1

P. aeruginosa (Pa) = test: as above; format: cell-based; conditions: for MIC: Pseudomonas aeruginosa, read-out: Pa MIC + bicarb
Summary of the method: as §1

E. coli (Ec) = test: as above; format: cell-based; conditions: for MIC: Escherichia coli, read-out: E. coli + bicarb MIC
Summary of the method: as §1

[1] = molecular target: Rabbit Reticulocyte Lysate (eukaryotic protein synthesis); test: Rabbit reticulocyte lysate luciferase assay (inhibition of eukaryotic protein synthesis); format: biochemical; conditions: class by IC50 or % inhibition @ 1 μM, read-out: Rabbit reticulocyte IC50 (μM/% inhib.)
Summary of the method: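 Compounds were tested in 8-point 2-fold dilution series for blocking luciferase synthesis in nuclease-treated rabbit reticulocyte lysate (30° C., 90 minutes). Luminescence read-out, corrected by no-RNA background, was expressed as % inhibition against water-only reactions.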

[2] = tested on: E. coli S30 extract (bacterial protein synthesis); test: E. coli S30 extract coupled transcription-translation luciferase assay (inhibition of bacterial protein synthesis); format: biochemical; conditions: class by IC50 or % inhibition @ 1 μM, read-out: S30 IC50 (μM/% inhib.)
Summary of the method: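 Luminescent read-out of luciferase made from pBESTluc DNA by E. coli S30 extract after 1 h at 37 °C with compound in an 8-point 2-fold series. Background came from no-DNA reactions. Percent inhibition was calculated against water-only controls.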

[3] = A. baumannii, growth medium with sodium bicarbonate
[4] = S. aureus, growth medium with sodium bicarbonate
[5] = P. aeruginosa, growth medium with sodium bicarbonate
[6] = E. coli, growth medium with sodium bicarbonate
[7] = E. faecalis, growth medium supplemented with sodium bicarbonate
[8] = A. baumannii, growth medium supplemented with sodium bicarbonate
[9] = S. aureus, growth medium supplemented with sodium bicarbonate
[10] = P. aeruginosa, growth medium supplemented with sodium bicarbonate
[11] = E. coli, growth medium supplemented with sodium bicarbonate
[12] = E. faecalis, growth medium with sodium bicarbonate

| Compound | IC50 [1] | MIC (E. faecalis (Ef); [7]) | MIC (A. baumannii (Ab); [8]) | MIC (S. aureus (Sa); [9]) | MIC (P. aeruginosa (Pa); [10]) | MIC (E. coli (Ec); [11]) | IC50 [2] | other results |
| --- | --- | --- | --- | --- | --- | --- | --- | --- |
| CC(N)C1CCN(Cc2ccc(-n3ccc(NC(=O)N4CCN(C(=O)C(C)(C)N)CC4)nc3=O)cc2)CC1 (centres unmarked) [Compound 299, hydrochloride salt] | > 1 µM |  |  |  |  |  |  | Ef + bicarb MIC (E. faecalis (Ef); E. faecalis, growth medium with sodium bicarbonate, hydrochloride salt): ++ (An MIC value (μg/mL) that is 8 μg/mL or greater and less than 32 μg/mL); Ab + bicarb MIC (A. baumannii (Ab); [3]): + (An MIC value (μg/mL) that is 32 μg/mL or greater); Sa + bicarb MIC (S. aureus (Sa); [4]): +++ (An MIC value (μg/mL) that is less than 8 μg/mL); Pa MIC + bicarb (P. aeruginosa (Pa); [5]): + (An MIC value (μg/mL) that is 32 μg/mL or greater); E. coli + bicarb MIC (E. coli (Ec); [6]): +++ (An MIC value (μg/mL) that is less than 8 μg/mL); IC50 ([2]; hydrochloride salt): 0.5 to 1 µM |
| CC(Cc1ccc(-n2ccc(NC(=O)N3CCN(C(=O)C(C)(C)N)CC3)nc2=O)cc1)NC[C@H]1C[C@H](N)C1 (some centres unmarked) [Compound 156] | > 1 µM | 8 to 32 µg/mL | > 32 µg/mL | < 8 µg/mL | > 32 µg/mL | < 8 µg/mL | < 0.5 µM |  |
| CC(CNC1CNC1)Oc1ccc(-n2ccc(NC(=O)N3CCN(C(=O)C(C)(C)N)CC3)nc2=O)cc1 (centres unmarked) [Compound 183] | > 1 µM |  |  |  |  |  | > 1 µM | MIC (E. faecalis (Ef); [12]): > 32 µg/mL; MIC (A. baumannii (Ab); [3]): > 32 µg/mL; MIC (S. aureus (Sa); [4]): > 32 µg/mL; MIC (P. aeruginosa (Pa); [5]): > 32 µg/mL; MIC (E. coli (Ec); [6]): > 32 µg/mL |
| CC(Cc1ccc(-n2ccc(NC(=O)N3CCN(C(=O)C(C)(C)N)CC3)nc2=O)cc1)N[C@H]1CC[C@@H](N)CC1 (some centres unmarked) [Compound 174] | > 1 µM |  |  |  |  |  | < 0.5 µM | MIC (E. faecalis (Ef); [12]): < 8 µg/mL; MIC (A. baumannii (Ab); [3]): 8 to 32 µg/mL; MIC (S. aureus (Sa); [4]): < 8 µg/mL; MIC (P. aeruginosa (Pa); [5]): > 32 µg/mL; MIC (E. coli (Ec); [6]): < 8 µg/mL |
| CC(Cc1ccc(-n2ccc(NC(=O)N3CCN(C(=O)C(C)(C)N)CC3)nc2=O)cc1)N(C)C[C@H]1C[C@@H](N)C1 (some centres unmarked) [Compound 160] | > 1 µM | < 8 µg/mL | > 32 µg/mL | < 8 µg/mL | > 32 µg/mL | < 8 µg/mL | < 0.5 µM |  |
| CNC1CCC(N(Cc2ccc(-n3ccc(NC(=O)N4CCN(C(=O)C(C)(C)N)CC4)nc3=O)cc2)CC2CC2)CC1 (centres unmarked) [Compound 301, hydrochloride salt] | > 1 µM |  |  |  |  |  | 0.5 to 1 µM | MIC (E. faecalis (Ef)): < 8 µg/mL; MIC (A. baumannii (Ab)): 8 to 32 µg/mL; MIC (S. aureus (Sa)): < 8 µg/mL; MIC (P. aeruginosa (Pa)): > 32 µg/mL; MIC (E. coli (Ec)): < 8 µg/mL |
| CC(N)C1CCN(Cc2ccc(-n3ccc(NC(=O)N4CCN(C(=O)C(C)(C)N)CC4)nc3=O)cc2)CC1 (centres unmarked) [Compound 247] | > 1 µM |  |  |  |  |  | < 0.5 µM | MIC (E. faecalis (Ef); [12]): < 8 µg/mL; MIC (A. baumannii (Ab); [3]): > 32 µg/mL; MIC (S. aureus (Sa); [4]): < 8 µg/mL; MIC (P. aeruginosa (Pa); [5]): > 32 µg/mL; MIC (E. coli (Ec); [6]): < 8 µg/mL |
| CC(C)(N)C(=O)N1CCN(C(=O)Nc2ccn(-c3ccc(CCN4CCCC(N)CC4)c(C(F)(F)F)c3)c(=O)n2)CC1 (centres unmarked) [Compound 142] | > 1 µM | < 8 µg/mL | 8 to 32 µg/mL | < 8 µg/mL | 8 to 32 µg/mL | < 8 µg/mL | < 0.5 µM |  |
| CC(C)(N)C(=O)N1CCN(C(=O)Nc2ccn(-c3ccc(CN4CCC(N)C(C)(C)C4)cc3)c(=O)n2)CC1 (centres unmarked) [Compound 254] | > 1 µM |  |  |  |  |  | 0.5 to 1 µM | MIC (E. faecalis (Ef); [12]): < 8 µg/mL; MIC (A. baumannii (Ab); [3]): < 8 µg/mL; MIC (S. aureus (Sa); [4]): < 8 µg/mL; MIC (P. aeruginosa (Pa); [5]): > 32 µg/mL; MIC (E. coli (Ec); [6]): < 8 µg/mL |
| CC(C)(N)C(=O)N1CCN(C(=O)Nc2ccn(-c3ccc(CNC4C[C@@H](N)C[C@@H](N)C4)cc3)c(=O)n2)CC1 (some centres unmarked) [Compound 321, hydrochloride salt] | > 1 µM |  |  |  |  |  | < 0.5 µM | MIC (E. faecalis (Ef)): > 32 µg/mL; MIC (A. baumannii (Ab)): > 32 µg/mL; MIC (S. aureus (Sa)): > 32 µg/mL; MIC (P. aeruginosa (Pa)): > 32 µg/mL; MIC (E. coli (Ec)): 8 to 32 µg/mL |
| CCN(Cc1ccc(-n2ccc(NC(=O)N3CCN(C(=O)C(C)(C)N)CC3)nc2=O)cc1)[C@H]1CC[C@H](N)CC1 [Compound 119] | > 1 µM | < 8 µg/mL | < 8 µg/mL | < 8 µg/mL | < 8 µg/mL | < 8 µg/mL | < 0.5 µM |  |
| CCN(Cc1ccc(-n2ccc(NC(=O)N3CCN(C(=O)CNC)CC3)nc2=O)cc1)C1CCC(N)CC1 (centres unmarked) [Compound 313, hydrochloride salt] | > 1 µM |  |  |  |  |  | 0.5 to 1 µM | MIC (E. faecalis (Ef)): > 32 µg/mL; MIC (A. baumannii (Ab)): > 32 µg/mL; MIC (S. aureus (Sa)): < 8 µg/mL; MIC (P. aeruginosa (Pa)): > 32 µg/mL; MIC (E. coli (Ec)): < 8 µg/mL |
| CC(C)(N)C(=O)N1CCN(C(=O)Nc2ccn(-c3ccc(CCCN4CCCC(N)CC4)cc3)c(=O)n2)CC1 (centres unmarked) [Compound 31] | > 1 µM | 8 to 32 µg/mL | > 32 µg/mL | < 8 µg/mL | > 32 µg/mL | < 8 µg/mL | < 0.5 µM |  |
| CN(CCc1ccc(-n2ccc(NC(=O)N3CCN(C(=O)C(C)(C)N)CC3)nc2=O)cc1)[C@H]1CC[C@@H](CN)C1 (stereo in doubt) [Compound 178] | > 1 µM |  |  |  |  |  | > 1 µM | MIC (E. faecalis (Ef); [12]): > 32 µg/mL; MIC (A. baumannii (Ab); [3]): > 32 µg/mL; MIC (S. aureus (Sa); [4]): 8 to 32 µg/mL; MIC (P. aeruginosa (Pa); [5]): > 32 µg/mL; MIC (E. coli (Ec); [6]): < 8 µg/mL |
| C[C@@H]1CN(C(=O)Nc2ccn(-c3ccc(CN4CCC(N)CC4)cc3)c(=O)n2)CCN1C(=O)C(C)(C)N [Compound 79] | > 1 µM | 8 to 32 µg/mL | > 32 µg/mL | < 8 µg/mL | > 32 µg/mL | < 8 µg/mL | < 0.5 µM |  |
| CN(Cc1ccc(-n2ccc(NC(=O)N3CCN(C(=O)C(C)(C)N)CC3)nc2=O)cc1)[C@H]1CC[C@H](N)CC1 [Compound 118] | > 1 µM | < 8 µg/mL | 8 to 32 µg/mL | < 8 µg/mL | 8 to 32 µg/mL | < 8 µg/mL | < 0.5 µM |  |
| CC(C)(N)C(=O)N1CCN(C(=O)Nc2ccn(-c3ccc(C(N)C(=O)NC4CNC4)cc3)c(=O)n2)CC1 (centres unmarked) [Compound 145] | > 1 µM | > 32 µg/mL | > 32 µg/mL | > 32 µg/mL | > 32 µg/mL | > 32 µg/mL | 0.5 to 1 µM |  |
